Key:
[1] = biological target: T1, human serum albumin (HSA) (Homo sapiens, UniProt P02768); test: Binding constants relative to HSA by equilibrium dialysis (Scatchard plot); conditions: pH 7.4, Scatchard plot
T1 construct: purchased Dessau company, Germany
Excerpt: A Scatchard plot is used to determine the binding constants relative to human serum albumin (HSA from the Dessau company, Germany) at pH 7.4 by means of equilibrium dialysis (equilibrium dialyzer from Spectrum, Inc., USA; dialysis membrane: cut-off MW 10000) for the prepared doxorubicin derivatives, all including an acid-labile hydrazone bond as the predetermined breaking point, and for doxorubicin.

[2] = biological target: T1, human serum albumin (HSA); conditions: Literature value (Demant et al., Biochemical Pharmacology 55, 27-32, 1998); cited from earlier work
[3] = biological target: HSA (Homo sapiens, UniProt P02768); test: Incubation with HSA followed by size-exclusion chromatography (Sephadex G-25); type: binding; conditions: incubation of only a few seconds with HSA (or blood plasma), mole ratio 1:1, Sephadex G-25
HSA, sequence (P02768 25-609): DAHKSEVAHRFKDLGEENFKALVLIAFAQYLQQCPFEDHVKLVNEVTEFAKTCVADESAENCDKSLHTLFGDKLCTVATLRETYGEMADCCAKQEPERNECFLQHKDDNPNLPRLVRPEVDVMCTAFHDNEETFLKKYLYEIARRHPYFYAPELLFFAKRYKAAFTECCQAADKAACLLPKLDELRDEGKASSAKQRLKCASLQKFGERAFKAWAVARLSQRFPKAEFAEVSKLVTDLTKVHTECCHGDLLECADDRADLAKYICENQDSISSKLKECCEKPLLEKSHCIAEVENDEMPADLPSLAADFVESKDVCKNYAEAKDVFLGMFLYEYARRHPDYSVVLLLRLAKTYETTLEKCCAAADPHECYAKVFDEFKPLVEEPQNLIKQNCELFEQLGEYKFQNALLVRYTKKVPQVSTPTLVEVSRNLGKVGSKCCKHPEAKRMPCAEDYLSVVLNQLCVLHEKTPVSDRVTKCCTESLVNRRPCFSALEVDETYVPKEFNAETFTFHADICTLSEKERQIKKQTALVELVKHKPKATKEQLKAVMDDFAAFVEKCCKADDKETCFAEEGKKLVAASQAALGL

[4] = biological target: transferrin (Homo sapiens, UniProt P02787); test: Incubation with transferrin followed by size-exclusion chromatography (Sephadex G-25); type: binding
transferrin, sequence (P02787 20-698, species assumed): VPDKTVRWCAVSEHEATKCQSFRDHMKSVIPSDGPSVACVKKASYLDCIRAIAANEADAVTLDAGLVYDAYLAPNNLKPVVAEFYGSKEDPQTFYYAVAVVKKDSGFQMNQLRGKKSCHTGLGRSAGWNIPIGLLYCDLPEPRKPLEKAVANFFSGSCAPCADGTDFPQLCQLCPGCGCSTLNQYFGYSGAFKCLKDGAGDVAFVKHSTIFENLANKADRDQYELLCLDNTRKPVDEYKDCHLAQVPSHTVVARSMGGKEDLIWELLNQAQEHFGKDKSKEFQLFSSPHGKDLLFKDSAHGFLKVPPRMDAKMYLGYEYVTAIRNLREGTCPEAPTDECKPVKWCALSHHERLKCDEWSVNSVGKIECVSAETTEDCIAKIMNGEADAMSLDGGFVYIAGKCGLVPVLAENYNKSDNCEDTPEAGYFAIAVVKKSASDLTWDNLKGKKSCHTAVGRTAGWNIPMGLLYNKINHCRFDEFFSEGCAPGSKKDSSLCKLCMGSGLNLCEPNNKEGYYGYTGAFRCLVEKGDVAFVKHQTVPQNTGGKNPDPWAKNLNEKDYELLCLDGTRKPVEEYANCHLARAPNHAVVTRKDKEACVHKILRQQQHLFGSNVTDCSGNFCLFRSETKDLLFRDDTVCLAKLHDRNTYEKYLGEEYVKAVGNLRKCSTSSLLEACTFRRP

[5] = biological target: T1, human serum albumin (HSA); test: Binding constant relative to HSA as stated in text
Excerpt: Thus BC-DOX1, after being brought into contact with HSA or after injection into the bloodstream, is tightly bound to that blood protein. Since BC-DOX1 in addition has a sulfonylhydrazone bond as an acid-labile bond between the carrier-molecule-affinitive substance and the cytostatic agent, in the acid environment of tumor tissue or in the acid intracellular compartments of the tumor cell, doxorubicin is released as the active substance so it can exert its therapeutic effect there.

T1 sequence (P02768 25-609): as the sequence (P02768 25-609) above

SMILES	KA relative to HSA [1]	behavior in size-exclusion chromatography after incubation with HSA [3]	also measured
CCCCCCCCCCCCCCCCCC(=O)N/N=C(\CO)[C@@]1(O)Cc2c(O)c3c(c(O)c2[C@@H](O[C@H]2CC(N)[C@H](O)C(C)O2)C1)C(=O)c1c(OC)cccc1C3=O (stereo partly drawn) [DOXO-SAH]	6.1 × 10^6		
COc1cccc2c1C(=O)c1c(O)c3c(c(O)c1C2=O)C[C@](O)(/C(CO)=N/NC(=O)CCOCCOCCOCCOCCOCCOCCNC(=O)c1cc(I)cc(I)c1I)C[C@H]3O[C@H]1CC(N)[C@H](O)C(C)O1 (stereo partly drawn) [DOXO-TIB-HEXA]	5.5 × 10^5		
COc1cccc2c1C(=O)c1c(O)c3c(c(O)c1C2=O)C[C@@](O)(C(=O)CO)C[C@@H]3O[C@H]1C[C@H](N)[C@H](O)[C@H](C)O1 [Doxorubicin, doxorubicin, reference compound]	2.9 × 10^3		KA relative to HSA, literature value [2]: 2.7 × 10^3
COc1cccc2c1C(=O)c1c(O)c3c(c(O)c1C2=O)C[C@](O)(/C(CO)=N/NC(=O)CCOCCOCCOCCOCCOCCOCCNS(=O)(=O)c1ccc2c(N=Nc4ccccc4)c(O)ccc2c1)C[C@@H]3O[C@H]1CC(N)[C@H](O)C(C)O1 (stereo partly drawn) [DOXO-CROC-HEXA]	7.2 × 10^7		
Cc1c(C2(c3cc(Br)c(O)c(Br)c3C)OS(=O)(=O)c3ccccc32)cc(Br)c(O)c1Br [Bromcresol green, reference compound]		elute together with HSA	affinity for other plasma proteins [4]: do not exhibit high affinity
COc1cccc2c1C(=O)c1c(O)c3c(c(O)c1C2=O)C[C@@](O)(/C(CO)=N/NS(=O)(=O)c1ccccc1/C(=C1/C=C(Br)C(=O)C(Br)=C1C)c1cc(Br)c(O)c(Br)c1C)C[C@@H]3O[C@H]1CC(N)[C@H](O)C(C)O1 (stereo partly drawn) [BC-DOX1]		behavior like that of bromcresol green or bromcresol green sulfonic acid	binding constant relative to human serum albumin compared with free doxorubicin [5]: several orders of magnitude greater
